Measurements published in patent US9481684B2, “Gonadotropin releasing hormone receptor antagonists, method for the preparation thereof and pharmaceutical composition comprising the same” (SK CHEMICALS CO., LTD., priority 2012, dated 2016).
Like-named read-outs stand apart in the source and are kept apart here.

Key:
GnRH receptor [1] = biological target: T1, GnRH receptor (Homo sapiens, UniProt P30968); assay: NFAT reporter (luciferase) gene expression assay for antagonistic effect on GnRH receptor, HEK293 transformed with pcDNA3.1/GnRH receptor and pGL4/NFAT promoter; assay type: cell-based
T1 sequence (P30968 1-328): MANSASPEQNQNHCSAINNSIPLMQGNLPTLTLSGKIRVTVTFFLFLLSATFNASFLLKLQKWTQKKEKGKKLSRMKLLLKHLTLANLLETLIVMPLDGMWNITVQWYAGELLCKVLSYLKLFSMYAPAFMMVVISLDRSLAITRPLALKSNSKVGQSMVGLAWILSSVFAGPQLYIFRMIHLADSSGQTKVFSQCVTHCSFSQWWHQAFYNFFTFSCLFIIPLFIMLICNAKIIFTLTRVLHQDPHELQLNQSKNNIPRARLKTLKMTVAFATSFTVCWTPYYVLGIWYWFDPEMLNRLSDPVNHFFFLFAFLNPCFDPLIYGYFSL
Experimental: For evaluation of antagonistic effect on GnRH receptor, double-transformed cell line, HEK293 (ATCC CRL-1573) which is transformed with pcDNA3.1/GnRH receptor and pGL4/NFAT promoter, was employed.
To conduct a GnRH receptor assay, the HEK293 (ATCC CRL-1573) cell line was diluted at a density of 3×10^4 cells/well in a DMEM medium supplemented with 10% FBS, 1% Penicillin-Streptomycin, and plated into polylysine-coated 96-well plates having a white-clear bottom, followed by incubating the cells at 37° C. for 24 hrs. Then, the medium was changed with a serum-free DMEM medium (1% Penicillin-Streptomycin), and the cells were incubated for an additional 16 hrs before use.
Test compounds were added to the wells in an amount of 1 μM to 0.01 nM, respectively, and further incubated for 1 hr. Then, leuprolide acetate as a ligand (Sigma) was added to the wells in an amount of 1 nM or 20 nM and subjected to an additional incubation for 6 hrs. The reagent of Luciferase assay system (Promega, Cat. No. E1500) was added to the wells and luminescence was measured using a luminometer (PerkinElmer, VICTOR3™, 1420 Multilabel Counter). The compound of formula 10b described in J. Med. Chem. 2008, 51, 7478 was used as a comparative compound.
Each sample was analyzed at a 6-dose level and the NFAT reporter inhibitory rate (%) of the inventive compounds was calculated according to the following equation based on the measured luminescence. Inhibition (%)={1−(compound−negative control)/(positive control−negative control)}×100 [Equation]
wherein, positive control is GnRH treated group; and negative control is non-treated group.

GnRH receptor [2] = biological target: T1, GnRH receptor; assay: GnRH receptor-membrane binding assay ([125I]-D-Trp6-LHRH displacement); parameters: purchased PerkinElmer; host or cells: CHO-K1 (ATCC CCL-61), stably transfected; conditions: for inhibition at 0.01 µM: read-out: GnRH binding inhibition (%) at 10 nM; for inhibitory effect compared with compounds comprising alkyl group (Examples 1-2 and 1-3): benzyl versus alkyl substituent at spiro-piperidine, comment on Table 10 (binding and NFAT reporter)
Experimental: A GnRH receptor membrane binding assay was carried out for the compounds of the present invention by employing a membrane substrate (PerkinElmer) isolated from CHO-K1 cells (ATCC CCL-61) stably transfected with a GnRH receptor.
A reaction was initiated by the addition of a 0.2 nM [^125I]-labeled D-Trp^6-LHRH peptide and the GnRH receptor membrane substrate at a density of 1 μg/250 μL/well, together with the inventive compounds at various concentrations ranging from 0.1 nM to 100 nM, to a binding buffer composed of 25 mM Hepes (pH 7.4), 10 mM MgCl2, 1 mM CaCl2 and 0.5% BSA (pH 7.4). The reaction mixture was incubated at 27° C. for 1 hr and subjected to vacuum suction for binding to a filter (Fitermat A, PerkinElmer). The filter was washed several times with 50 mM tris-HCl buffer to terminate the reaction. The radioactivity binding to the filter was measured using MicroBeta2 TriLux (PerkinElmer). The binding inhibition rate (%) of the inventive compounds were analyzed on the basis of the measured radioactivity, and IC50 value was calculated using a non-linear least square regression method with Prism (GraphPad, Inc.).

[3] = compound at 100 nM, leuprolide acetate as ligand, HEK293, read-out: NFAT reporter activity inhibition (%) at 100 nM
[4] = compound at 10 nM, 0.2 nM [125I]-D-Trp6-LHRH, CHO-K1 GnRH receptor membrane
[5] = HEK293, read-out: NFAT reporter activity inhibition (%) at 100 nM

Compound | inhibition at 0.1 µM (GnRH receptor [1]; [3]) | inhibition at 0.01 µM (GnRH receptor [2]; [4]) | further results
N[C@@H](Cn1c(=O)c2c(n(Cc3c(F)cccc3C(F)(F)F)c1=O)CCC21CCN(Cc2ccc(C(F)(F)F)o2)CC1)c1ccccc1 [Example 3-5, (R)-3-(2-amino-2-phenylethyl)-1-(2-fluoro-6-(trifluoromethyl)benzyl)-1′-((5-(trifluoromethyl)furan-2-yl)methyl)-6,7-dihydrospiro[cyclopenta[d]pyrimidine-5,4′-piperidine]-2,4(1H,3H)-dione] | 99% | 101% | 
Cc1ccccc1CN1CCC2(CC1)OCc1c2c(=O)n(C[C@H](N)c2ccccc2)c(=O)n1Cc1c(F)cccc1C(F)(F)F [Example 1-26, (R)-3-(2-amino-2-phenylethyl)-1-(2-fluoro-6-(trifluoromethyl)benzyl)-1′-(2-methylbenzyl)-1H-spiro[furo[3,4-d]pyrimidine-5,4′-piperidine]-2,4(3H,7H)-dione] | 22% | 102% | 
COC(=O)c1cccc(CN2CCC3(CC2)OCc2c3c(=O)n(C[C@H](N)c3ccccc3)c(=O)n2Cc2c(F)cccc2C(F)(F)F)c1 [Example 1-19, (R)-methyl 3-((3-(2-amino-2-phenylethyl)-1-(2-fluoro-6-(trifluoromethyl)benzyl)-2,4-dioxo-2,3,4,7-tetrahydro-1H-spiro[furo[3,4-d]pyrimidine-5,4′-piperidin]-1′-yl)methyl)benzoate] | 89% | 97.5% | inhibitory effect compared with compounds comprising alkyl group (Examples 1-2 and 1-3) (GnRH receptor [2]): improved inhibitory effect
Cc1cccc(C(Cn2c(=O)c3c(n(Cc4c(F)cccc4C(F)(F)F)c2=O)COC32CCN(Cc3ccc(C(F)(F)F)o3)CC2)NCCCC(=O)O)n1 (stereo not drawn) [Example 36, 4-((2-(1-(2-fluoro-6-(trifluoromethyl)benzyl)-2,4-dioxo-1′-((5-(trifluoromethyl)furan-2-yl)methyl)-1H-spiro[furo[3,4-d]pyrimidine-5,4′-piperidin]-3(2H,4H,7H)-yl)-1-(6-methylpyridin-2-yl)ethyl)amino)butanoic acid] |  | 88% | inhibition at 0.01 µM (GnRH receptor [1]; compound at 10 nM, leuprolide acetate as ligand, HEK293): 88.2%
N[C@@H](Cn1c(=O)c2c(n(Cc3c(F)cccc3C(F)(F)F)c1=O)COC21CCN(Cc2ccccc2F)CC1)c1ccccc1 [Example 1-29, (R)-3-(2-amino-2-phenylethyl)-1-(2-fluoro-6-(trifluoromethyl)benzyl)-1′-(2-fluorobenzyl)-1H-spiro[furo[3,4-d]pyrimidine-5,4′-piperidine]-2,4(3H,7H)-dione] | 58% | 104% | 
COCCN1CCC2(CC1)OCc1c2c(=O)n(C[C@H](N)c2ccccc2)c(=O)n1Cc1c(F)cccc1C(F)(F)F [Example 1-2, (R)-3-(2-amino-2-phenylethyl)-1-(2-fluoro-6-(trifluoromethyl)benzyl)-1′-(2-methoxyethyl)-1H-spiro[furo[3,4-d]pyrimidine-5,4′-piperidine]-2,4(3H,7H)-dione] |  | 50.8% | 
N#Cc1cccc(CN2CCC3(CC2)OCc2c3c(=O)n(C[C@H](N)c3ccccc3)c(=O)n2Cc2c(F)cccc2C(F)(F)F)c1 [Example 1-15, (R)-3-((3-(2-amino-2-phenylethyl)-1-(2-fluoro-6-(trifluoromethyl)benzyl)-2,4-dioxo-2,3,4,7-tetrahydro-1H-spiro[furo[3,4-d]pyrimidine-5,4′-piperidine]-1′-yl)methyl)benzonitrile] |  |  | inhibition at 0.1 µM (GnRH receptor [1]; [5]): 67%; inhibitory effect compared with compounds comprising alkyl group (Examples 1-2 and 1-3) (GnRH receptor [2]): improved inhibitory effect; inhibition at 0.01 µM (GnRH receptor [2]): 91.3%
N[C@@H](Cn1c(=O)c2c(n(Cc3c(F)cccc3C(F)(F)F)c1=O)COC21CCN(Cc2cccc3nonc23)CC1)c1ccccc1 [Example 1-25, (R)-3-(2-amino-2-phenylethyl)-1′-(benzo[c][1,2,5]oxadiazol-4-ylmethyl)-1-(2-fluoro-6-(trifluoromethyl)benzyl)-1H-spiro[furo[3,4-d]pyrimidine-5,4′-piperidine]-2,4(3H,7H)-dione] | 56% | 91.3% | 
N[C@@H](Cn1c(=O)c2c(n(Cc3c(F)cccc3F)c1=O)COC21CCN(Cc2ccc(C(F)(F)F)o2)CC1)c1ccccc1 [Example 1-42, (R)-3-(2-amino-2-phenylethyl)-1-(2,6-difluorobenzyl)-1′-((5-(trifluoromethyl)furan-2-yl)methyl)-1H-spiro[furo[3,4-d]pyrimidine-5,4′-piperidine]-2,4(3H,7H)-dione] | 82% | 93.9% | 
CC(C)(C)CN1CCC2(CC1)OCc1c2c(=O)n(C[C@H](N)c2ccccc2)c(=O)n1Cc1c(F)cccc1C(F)(F)F [Example 1-3, (R)-3-(2-amino-2-phenylethyl)-1-(2-fluoro-6-(trifluoromethyl)benzyl)-1′-neopentyl-1H-spiro[furo[3,4-d]pyrimidine-5,4′-piperidine]-2,4(3H,7H)-dione] |  |  | inhibition at 0.1 µM (GnRH receptor [1]; [5]): 15%
CONC(=O)Nc1cccc(C(Cn2c(=O)c3c(n(Cc4c(F)cccc4C(F)(F)F)c2=O)COC32CCN(Cc3ccc(C(F)(F)F)o3)CC2)NC(=O)OC(C)(C)C)c1 (stereo not drawn) [Example 63, tert-butyl (2-(1-(2-fluoro-6-(trifluoromethyl)benzyl)-2,4-dioxo-1′-((5-(trifluoromethyl)furan-2-yl)methyl)-1H-spiro[furo[3,4-d]pyrimidine-5,4′-piperidin]-3(2H,4H,7H)-yl)-1-(3-(3-methoxyureido)phenyl)ethyl)carbamate] | 100% | 89.8% | 
N[C@@H](Cn1c(=O)c2c(n(Cc3c(F)cccc3C(F)(F)F)c1=O)COC21CCN(Cc2cocn2)CC1)c1ccccc1 [Example 1-63, (R)-3-(2-amino-2-phenylethyl)-1-(2-fluoro-6-(trifluoromethyl)benzyl)-1′-(oxazol-4-ylmethyl)-1H-spiro[furo[3,4-d]pyrimidine-5,4′-piperidine]-2,4(3H,7H)-dione] | 18% | 88.6% | 
COc1cccc(CN2CCC3(CC2)OCc2c3c(=O)n(C[C@H](N)c3ccccc3)c(=O)n2Cc2c(F)cccc2C(F)(F)F)c1 [Example 1-14, (R)-3-(2-amino-2-phenylethyl)-1-(2-fluoro-6-(trifluoromethyl)benzyl)-1′-(3-methoxybenzyl)-1H-spiro[furo[3,4-d]pyrimidine-5,4′-piperidine]-2,4(3H,7H)-dione] |  |  | inhibition at 0.1 µM (GnRH receptor [1]; [5]): 34%; inhibition at 0.01 µM (GnRH receptor [2]): 96%
N[C@@H](Cn1c(=O)c2c(n(Cc3c(F)cccc3C(F)(F)F)c1=O)COC21CCN(Cc2ccc(Cl)cc2)CC1)c1ccccc1 [Example 1-51, (R)-3-(2-amino-2-phenylethyl)-1′-(4-chlorobenzyl)-1-(2-fluoro-6-(trifluoromethyl)benzyl)-1H-spiro[furo[3,4-d]pyrimidine-5,4′-piperidine]-2,4(3H,7H)-dione] | 30% | 95.6% | 
Cc1ccc(CN2CCC3(CC2)OCc2c3c(=O)n(C[C@H](N)c3ccccc3)c(=O)n2Cc2c(F)cccc2C(F)(F)F)cc1 [Example 1-50, (R)-3-(2-amino-2-phenylethyl)-1-(2-fluoro-6-(trifluoromethyl)benzyl)-1′-(4-methylbenzyl)-1H-spiro[furo[3,4-d]pyrimidine-5,4′-piperidine]-2,4(3H,7H)-dione] |  |  | inhibition at 0.1 µM (GnRH receptor [1]; [5]): 17%; inhibition at 0.01 µM (GnRH receptor [2]): 96.3%
